Test results published in the Kinase Knowledgebase extract (Sharma et al. 2016).

Columns and labels:
Experiment in all cases: Enzyme Assay
PIK3CB (Human) = PIK3CB (Human) (UniProt P42338)
PIK3CD (Human) = PIK3CD (Human) (UniProt O00329)
PIK3CG (human) = PIK3CG (human) (UniProt P48736)
PIK3CG (human), sequence (P48736 whole entry, looked up): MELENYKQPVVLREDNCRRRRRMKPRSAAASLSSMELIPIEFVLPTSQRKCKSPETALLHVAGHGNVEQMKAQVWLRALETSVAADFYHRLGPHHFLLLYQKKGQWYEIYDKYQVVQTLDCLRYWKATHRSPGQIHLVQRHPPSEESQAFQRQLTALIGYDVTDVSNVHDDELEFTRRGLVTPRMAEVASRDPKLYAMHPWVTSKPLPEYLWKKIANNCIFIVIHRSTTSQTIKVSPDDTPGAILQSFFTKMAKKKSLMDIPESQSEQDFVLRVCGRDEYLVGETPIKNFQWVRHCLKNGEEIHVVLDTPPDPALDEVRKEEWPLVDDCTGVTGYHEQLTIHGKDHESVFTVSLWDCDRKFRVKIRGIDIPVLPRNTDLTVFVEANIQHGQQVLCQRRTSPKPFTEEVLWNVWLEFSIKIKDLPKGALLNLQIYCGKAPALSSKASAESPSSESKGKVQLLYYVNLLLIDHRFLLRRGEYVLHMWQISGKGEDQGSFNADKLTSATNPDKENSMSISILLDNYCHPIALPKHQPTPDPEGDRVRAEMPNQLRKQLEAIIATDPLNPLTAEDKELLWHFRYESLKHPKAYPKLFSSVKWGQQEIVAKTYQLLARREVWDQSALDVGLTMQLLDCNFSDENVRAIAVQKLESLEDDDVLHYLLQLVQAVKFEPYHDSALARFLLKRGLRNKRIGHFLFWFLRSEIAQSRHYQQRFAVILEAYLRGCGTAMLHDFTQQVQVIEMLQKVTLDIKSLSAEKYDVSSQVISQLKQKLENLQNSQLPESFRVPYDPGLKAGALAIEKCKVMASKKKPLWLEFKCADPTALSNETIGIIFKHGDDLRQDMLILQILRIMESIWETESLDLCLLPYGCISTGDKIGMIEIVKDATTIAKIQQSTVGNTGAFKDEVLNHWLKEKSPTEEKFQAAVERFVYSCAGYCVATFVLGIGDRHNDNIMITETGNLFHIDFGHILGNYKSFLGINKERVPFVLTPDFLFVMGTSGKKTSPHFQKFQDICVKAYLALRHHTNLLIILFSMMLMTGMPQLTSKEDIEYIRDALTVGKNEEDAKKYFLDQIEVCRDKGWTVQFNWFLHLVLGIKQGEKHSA

PIK3CD (Human), sequence (O00329 whole entry, looked up): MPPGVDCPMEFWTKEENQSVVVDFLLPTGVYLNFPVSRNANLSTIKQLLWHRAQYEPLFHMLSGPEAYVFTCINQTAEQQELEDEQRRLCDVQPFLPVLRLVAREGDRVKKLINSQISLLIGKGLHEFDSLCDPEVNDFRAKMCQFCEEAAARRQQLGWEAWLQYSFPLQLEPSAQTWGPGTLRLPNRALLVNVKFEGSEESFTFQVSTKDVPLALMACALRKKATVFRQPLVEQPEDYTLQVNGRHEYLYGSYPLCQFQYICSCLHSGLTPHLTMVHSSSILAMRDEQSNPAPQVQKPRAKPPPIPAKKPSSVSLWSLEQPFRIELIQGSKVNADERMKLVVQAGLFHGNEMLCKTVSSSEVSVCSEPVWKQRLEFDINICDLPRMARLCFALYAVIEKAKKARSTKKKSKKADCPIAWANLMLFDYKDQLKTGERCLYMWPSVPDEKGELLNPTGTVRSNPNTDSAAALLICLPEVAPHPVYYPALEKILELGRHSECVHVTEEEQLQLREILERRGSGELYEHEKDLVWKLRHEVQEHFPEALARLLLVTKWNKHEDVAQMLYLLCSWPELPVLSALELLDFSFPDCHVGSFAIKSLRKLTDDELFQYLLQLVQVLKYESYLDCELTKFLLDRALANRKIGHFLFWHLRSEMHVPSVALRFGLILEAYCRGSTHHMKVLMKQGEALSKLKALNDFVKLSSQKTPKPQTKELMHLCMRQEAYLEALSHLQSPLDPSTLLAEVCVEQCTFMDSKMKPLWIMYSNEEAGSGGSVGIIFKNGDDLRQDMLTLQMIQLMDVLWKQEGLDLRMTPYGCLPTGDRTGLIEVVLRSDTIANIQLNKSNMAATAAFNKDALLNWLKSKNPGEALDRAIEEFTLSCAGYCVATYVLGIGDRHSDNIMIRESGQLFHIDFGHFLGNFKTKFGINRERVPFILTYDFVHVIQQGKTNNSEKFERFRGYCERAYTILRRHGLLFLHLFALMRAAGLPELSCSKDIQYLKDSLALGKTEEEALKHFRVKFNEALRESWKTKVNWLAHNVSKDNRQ
PIK3CB (Human), sequence (P42338 whole entry, looked up): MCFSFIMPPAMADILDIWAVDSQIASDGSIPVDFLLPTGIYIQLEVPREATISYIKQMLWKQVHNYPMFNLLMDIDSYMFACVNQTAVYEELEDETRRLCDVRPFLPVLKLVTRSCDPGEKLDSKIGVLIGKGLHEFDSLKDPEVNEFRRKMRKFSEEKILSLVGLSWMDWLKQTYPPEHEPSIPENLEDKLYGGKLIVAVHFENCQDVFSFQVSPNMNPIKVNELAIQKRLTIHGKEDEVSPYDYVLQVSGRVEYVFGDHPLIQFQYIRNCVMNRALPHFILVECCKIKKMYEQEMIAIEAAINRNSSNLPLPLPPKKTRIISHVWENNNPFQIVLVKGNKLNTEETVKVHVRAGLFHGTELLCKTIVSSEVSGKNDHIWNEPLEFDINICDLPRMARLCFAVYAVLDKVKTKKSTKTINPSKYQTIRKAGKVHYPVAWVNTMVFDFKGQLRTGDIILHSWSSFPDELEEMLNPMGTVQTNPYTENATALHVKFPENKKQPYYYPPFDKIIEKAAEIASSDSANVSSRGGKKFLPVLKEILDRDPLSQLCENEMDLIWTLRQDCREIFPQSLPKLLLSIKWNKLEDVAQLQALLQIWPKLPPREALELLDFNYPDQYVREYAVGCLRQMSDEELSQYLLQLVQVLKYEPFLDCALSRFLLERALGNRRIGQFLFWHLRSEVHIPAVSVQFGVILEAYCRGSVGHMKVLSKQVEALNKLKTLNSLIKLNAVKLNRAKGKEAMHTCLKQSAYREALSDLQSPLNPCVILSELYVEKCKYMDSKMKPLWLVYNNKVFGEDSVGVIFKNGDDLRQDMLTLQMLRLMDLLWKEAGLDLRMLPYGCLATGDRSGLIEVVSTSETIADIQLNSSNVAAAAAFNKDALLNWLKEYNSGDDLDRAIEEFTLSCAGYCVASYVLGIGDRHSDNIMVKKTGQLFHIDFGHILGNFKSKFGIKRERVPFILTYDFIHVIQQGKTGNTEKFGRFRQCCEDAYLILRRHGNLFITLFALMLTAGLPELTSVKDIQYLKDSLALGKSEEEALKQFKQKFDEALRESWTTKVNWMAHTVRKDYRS

SMILES	IC50 (PIK3CB (Human))	IC50 (PIK3CD (Human))	IC50 (PIK3CG (human))
N#Cc1c(N)nc(N)nc1N1CCC[C@H]1c1nc2c(Cl)ccc(Cl)c2c(=O)n1-c1cccc(C(N)=O)c1	51 nM	2 nM	1.4 µM
N#Cc1c(N)ncnc1N1CCC[C@H]1c1nc2cccc(Cl)c2c(=O)n1-c1cccc(NC(=O)Nc2ccccn2)c1	420 nM	49 nM	7.4 µM
CCNC(=O)Nc1ccc(Cl)c(-n2c([C@H](C)Nc3ncnc(N)c3C#N)nc3cccc(Cl)c3c2=O)c1			> 10 µM
C[C@H](Nc1ncnc(N)c1C#N)c1nc2cccc(Cl)c2c(=O)n1-c1cccc(NC(=O)Nc2cccnc2C(F)(F)F)c1	23 nM	11 nM	3.9 µM
COCCNC(=O)Nc1cccc(-n2c([C@@H]3CCCN3c3ncnc(N)c3C#N)nc3cccc(Cl)c3c2=O)c1	97 nM	38 nM	7.8 µM
